Earlier results in article PMC13064256, “Integrative preclinical strategy for pharmacokinetic profiling and candidate selection of 3-hydroxypropanamidines: a promising antimalarial class” (Malaria Journal, 2026).

Set-up: method as in PMID 31898492

In the case of `CCCCN(CCCC)CCC(O)c1cc2c(Cl)cc(Cl)cc2c2cc(C(F)(F)F)ccc12` (stereo not shown) [halofantrine], the “Clint in HLMs” value is listed as 26.9 µL/min/mg.
